Reference: patent US10857209B2, “Lysosomal acid lipase and PPAR gamma ligands as immune therapies for cancer treatment” (Indiana University Research and Technology Corporation, priority 2016, dated 2020)

B1: hLAL: human lysosomal acid lipase expressed from a doxycycline-controlled tissue-specific transgene in lal−/− mice; never administered as a protein (protein)
chain: GPKPVVFLQHGLLADSSNWVTNLANSSLGFILADAGFDVWMGNSRGNTWSRKHKTLSVSQDEFWAFSYDEMAKYDLPASINFILNKTGQEQVYYVGHSQGTTIGFIAFSQIPELAKRIKMFFALGPVASVAFCTSPMAKLGRLPDHLIKDLFGDKEFLPQSAFLKWLGTHVCTHVILKELCGNLCFLLCGFNERNLNMSRVDVYTTHSPAGTSVQNMLHWSQAVKFQKFQAFDWGSSAKNYFHYNQSYPPTYNVKDMLVPTAVWSGGHDWLADVYDVNILLTQITNLVFHESIPEWEHLDFIWGLDAPWRLYNKIINLMRKYQ
modifications: left off: small tags and cut ends
notes: human lysosomal acid lipase expressed from a doxycycline-controlled tissue-specific transgene in lal−/− mice; never administered as a protein

How the values were obtained:
[1] = system: Ly6G+CD11b+ cells; test: Mitochondrial membrane potential (JC-1) in Ly6G+CD11b+ cells by flow cytometry; assay type: cell-based, mouse; details: lal−/− Ly6G+CD11b+ cells; 20 μmol/L, 48 hours; vs ethanol
Protocol: The reactive oxygen species (ROS) level and mitochondrial membrane potential in MDSCs was measured by flow cytometry. Briefly, bone marrow cells were first treated with or without 20 μmol/L 9-HODE or ethanol for 2 days. For ROS level detection, cells were harvested, washed, and stained with 2′,7′-dichlorofluorescein diacetate (2 μmol/L, Invitrogen), allophycocyanin cy7-conjugated anti-Ly6G Ab, and phycoerythrin cy7-conjugated anti-CD 11b Ab (eBioscience) at 37° C. for 15 minutes. After PBS wash, the ROS level in Ly6G^+CD11b^+ cells was analyzed using a LSRII machine (BD Biosciences).
For mitochondrial membrane potential measurement, cells were stained with the fluorescent dye JC-1 (2 μmol/L, Molecular Probes, Eugene, Oreg., USA), allophycocyanin cy7-conjugated anti-Ly6G antibody, and phycoerythrin cy7-conjugated anti-CD 11b antibody (eBioscience) at 37° C. for 15 minutes, and then analyzed for phycoerythrin (JC-1 red) and fluorescein isothiocyanate (JC-1 green) fluorescent cells in Ly6G^+CD11b^+ cells by flow cytometry. Cells treated with 50 μmol/L carbonyl cyanide 3-chlorophenylhydrazone for 5 minutes were served as a fluorescein isothiocyanate-positive control.

[2] = system: B16 melanoma cells; test: Mouse tumor growth model, pre-treated MDSCs co-injected subcutaneously with B16 melanoma cells; assay type: in vivo
Protocol: For in vitro PPARγ ligand treatment, 9-HODE (Cayman Chemical Co., Ann Arbor, Mich., USA) was added into the culture medium of MDSCs to a final concentration of 20 μmol/L for 24 or 48 hours. For the study of the effect of PPARγ ligand on the mTOR signaling pathway, bone marrow cells were treated with 9-HODE (20 μmol/L) for 2 hours.
The tumor growth and metastasis model were described in Zhao et al., Oncogene. 2015; 34:1938-48. MDSCs and B16 melanoma cells were collected separately. A pilot study was performed to determine the best ratio between MDSCs and B16 melanoma cells. To test the tumor growth potential, 6×10^5 pre-treated MDSCs and 2×10^5 B16 melanoma cells were mixed, centrifuged and re-suspended in 100 μL PBS, and then injected subcutaneously into the flank region of 3-month old recipient lal^+/+ mice. Tumor volume (length×width^2×π/6) was monitored every week for 4 weeks. To test the metastasis potential, 2×10^6 pre-treated MDSCs and 5×10^5 B16 melanoma cells were mixed and incubated at 37° C., 5% CO2 for 30 minutes. After the incubation, cells were centrifuged, re-suspended, and injected intravenously into 3-month old lal^+/+ mice. Two weeks after the injection, the mice were sacrificed and the lungs were inflated with 4% paraformaldehyde for examination of metastasis.

[3] = system: Lewis lung cancer (LLC) cells; test: In vitro co-culture of pre-treated MDSCs and LLC cells; assay type: cell-based, mouse; details: lal−/− Ly6G+ cells pre-treated 20 μmol/L 24 hours; 72 hours co-culture
[4] = system: Lin− cells; test: Differentiation of bone marrow Lin− cells into Ly6G+CD11b+ cells; assay type: cell-based, mouse; details: lal−/− Lin− cells; 10 μmol/L, 5 days; vs ethanol
Protocol: Lineage-negative (Lin−) cells were isolated from the bone marrow by removing blood lineage marker-positive cells with an immunomagnetic microbead technique. Briefly, bone marrow cells were first incubated with a cocktail of biotin-conjugated antibodies against lineage specific antigens: CD11b, GR-1, B220, TER-119, and CD3ε (Mouse Lineage Panel Kit, BD Pharmingen, San Diego, Calif., USA) at 4° C. for 15 minutes. After washed with PBS, cells were then incubated with anti-biotin microbeads at 4° C. for another 15 minutes. Subsequently, cells were subjected to magnetic bead sorting according to the manufacturer's instructions (Miltenyi Biotec.). The resulting Lin− cells were cultured in RPMI1640 with 10% FBS. Five days later, Ly6G^+CD11b^+ cells derived from Lin− cells were analyzed by flow cytometry analysis.

[5] = system: B16 melanoma cells; test: B16 melanoma metastasis in CCSP-Tg/KO mice; assay type: in vivo, mouse; details: lung epithelial-specific expression in lal−/− mice; 5×10^5 cells i.v., two weeks
Protocol: For the tumor metastasis model, 5×10^5 B16 melanoma cells in 200 μL PBS were injected into the mice via tail vein. Two weeks after the injection, the mice were sacrificed and the lungs were harvested for examination of metastasis.

[6] = system: cytokines and chemokines; test: Cytokines and chemokines in BALF and plasma (ELISA) and lung (RT-PCR) of CCSP-Tg/KO mice; assay type: in vivo, mouse
Protocol: BALF was collected by 1 mL PBS. The expression levels of IL-6, GM-CSF, MCP-1 and TNFα in the BALF and plasma were measured using ELISA kits (BD Biosciences, San Jose, Calif.) according to the manufacturer's instructions.
Total RNAs were purified from lungs of lal^+/+, lal^−/− and CCSP-Tg/KO triple mice using RNeasy Mini Kits according to the manufacturer's instruction (Qiagen, Valencia, Calif., USA). Quantitative (q)RT-PCR was performed as described previously (Wu et al., Blood. 2012; 119:115-26). Analysis was performed by the 2^−ΔΔCT method. Primers of mIL-6, mIL-1β, mIL-10, mGM-CSF, mM-CSF, mTNF-α, mMCP-1, mCCL5 and GAPDH were used for real-time PCR.

[7] = doxycycline-treated CCSP-Tg/KO mice
[8] = doxycycline-treated vs untreated CCSP-Tg/KO mice

Molecule | mitochondrial membrane potential [1] | tumor size vs ethanol-treated lal−/− Ly6G+ cells ([2]; C57BL/6 Ly6G+ cells into C57BL/6 mice, 7, 14 and 21 days post-injection) | tumor volume ([2]; lal−/− Ly6G+ cells pre-treated 20 μmol/L 24 hours, co-injected s.c. with B16 cells into lal+/+ FVB/N mice, one week after injection, ethanol control 77.6±16.4) [mm^3] | proliferation of LLC cells upon co-culture [3] | Ly6G+CD11b+ cells derived from Lin− cells [4] | B16 melanoma cell metastasis in the lung [5] | lung GM-CSF mRNA level [6, 7] | lung mRNA levels of IL-6, MCP-1, TNFα, CCL5, IL-10 and IL-1β [6, 7] | IL-6, GM-CSF, MCP-1 and TNFα concentrations in BALF (ELISA) [6, 8] | IL-6, GM-CSF, MCP-1 and TNFα levels in the plasma [6, 8]
9-hydroxyoctadecadienoic acid [9-HODE] | partially recovered | significantly smaller | 36.3±12.4 | reduced proliferation of LLC cells | fewer Ly6G^+CD11b^+ cells | – | – | – | – | –
B1 | – | – | – | – | – | reduced B16 melanoma cell metastasis | remained unchanged | significantly down-regulated | significantly decreased | similar
